Where a name gives a salt, the structure may show the parent alone.
Test system: Pancreatic β cell line MIN6 cells
Assay: Insulin secretion stimulating activity in cultured β cells (MIN6), insulin in the supernatant by enzyme immunoassay or radioimmunoassay
Assay type: cell-based
Details: drug concentration 1.0 μmol/L, 14.5 mmol/L glucose, 45 min after stimulation, average of 3 to 4 tests, None (no drug) 148.4
Description: Insulin Secretion Stimulating Activity in Cultured β Cells
Pancreatic β cell line MIN6 cells reported by Miyazaki, et al. [see Endocrinology, (1990) 127, p. […] 1139-1145]. In MIN6 cells, insulin secretion increase responding to a sulfonylurea agents, such as Glybenclamide, which are used as a therapeutic agent for diabetes (Cellular Signaling, (1993) 5, p. 777-786). Therefore, the above-mentioned culture of MIN6 cells and an insulin secretion test using the MIN6 cells were performed according to the method described in Diabetologia, (1993) 36, p. 1139-1145.
The effects of a compound on an insulin secretion activity under the presence of 14.5 mmol/L glucose was determined by measuring insulin amount in cell-culture supernatant collected as follows:
MIN6 cells cultured in a 24-well plate were washed twice with 1 mL of buffer solution A (pH 7.3) containing 2 mmol/L glucose. Buffer solution A consists of 119 mmol/L sodium chloride, 4.74 mmol/L potassium chloride, 2.54 mmol/L calcium chloride, 1.19 mmol/L magnesium sulfate, 1.19 mmol/L potassium dihydrogen phosphate, 10 mmol/L 2-[4-(2-hyroxyethyl)-1-piperazinyl]ethane sulfonic acid and 0.1% bovine serum albumin. Then, the cells were incubated in 1 mL of buffer solution A containing 2 mmol/L glucose at 37° C. for 45 minutes. After the incubation, the culture supernatant was exchanged with 0.9 mL of buffer solution A containing each test compound at various concentrations and 2 mmol/L glucose. The cells were further incubated at 37° C. for 15 minutes. Then, the MIN6 cells were stimulated with glucose by adding 0.1 mL of buffer solution A containing 127 mmol/L glucose (a final glucose concentration: 14.5 mmol/L). After the stimulation, the cells were further incubated at 37° C. for 45 minutes, and the supernatant was collected.
Antibody reactive insulin secreted in the culture supernatant was diluted with a phosphate buffer solution containing 1% bovine serum albumin, 0.1% Tween 20, 0.12% ethylenediaminetetraacetic acid (EDTA) disodium salt and 0.1% sodium azide, and then quantitatively measured by enzyme immunoassay or radioimmunoassay. The insulin levels were indicated as the amount of human insulin (ng/mLY. The results are indicated by averages (avg) and standard errors (se) of 3 to 4 tests.

Compound | Insulin secretion content (ng/mL) ave [ng/mL]
CCCN1C(=O)N2CC(Cc3ccncc3)N=C2c2cn(-c3ccccc3)nc21 (stereo not shown) [Compound 6, 2,3-Dihydro-8-phenyl-6-propyl-2-(4-picolyl)-8H-imidazo[1,2-c]pyrazolo[4,3-e]pyrimidin-5(6H)-one] | 172.5
CCCN1C(=O)N2C[C@@H](Cc3ccccc3)N=C2c2[nH]c(-c3ccccc3)cc21 [Compound 2, (R)-8-Benzyl-7,8-dihydro-2-phenyl-4-propyl-1H-imidazo[1,2-c]pyrrolo[2,3-e]pyrimidin-5(4H)-one] | 187.1
CCCN1C(=O)N2CC(Cc3ccc(Cl)cc3)N=C2c2cn(-c3ccccc3)nc21 (stereo not shown) [Compound 5, 2-(4-Chlorobenzyl)-2,3-dihydro-8-phenyl-6-propyl-8H-imidazo[1,2-c]pyrazolo[4,3-e]pyrimidin-5(6H)-one] | 190.9
CCCN1C(=O)N2C[C@@H](Cc3ccncc3)N=C2c2cn(C3CCCC3)nc21 [Compound 8, (R)-8-Cyclopentyl-2,3-dihydro-6-propyl-2-(4-picolyl)-8H-imidazo[1,2-c]pyrazolo[4,3-e]pyrimidin-5(6H)-one] | 183.9
CCCN1C(=O)N2CC(Cc3ccc(F)cc3)N=C2c2cn(-c3ccccc3)nc21 (stereo not shown) [Compound 4, 2-(4-Fluorobenzyl)-2,3-dihydro-8-phenyl-6-propyl-8H-imidazo[1,2-c]pyrazolo[4,3-e]pyrimidin-5(6H)-one] | 212.1
CCCN1C(=O)N2C[C@@H](Cc3ccccc3)N=C2c2nn(C3CCCC3)cc21 [Compound 10, (R)-8-Benzyl-2-cyclopentyl-7,8-dihydro-4-propyl-2H-imidazo[1,2-c]pyrazolo[3,4-e]pyrimidin-5(4H)-one hydrochloride] | 184.7
CCCN1C(=O)N2C[C@@H](Cc3ccccc3)N=C2c2cn(-c3ccccc3)nc21 [Compound 3, (R)-2-Benzyl-2,3-dihydro-8-phenyl-6-propyl-8H-imidazo[1,2-c]pyrazolo[4,3-e]pyrimidin-5(6H)-one] | 213.2
CCCN1C(=O)N2C[C@@H](Cc3ccccc3)N=C2c2cc(-c3ccccc3)[nH]c21 [Compound 1, (R)-2-Benzyl-2,3-dihydro-8-phenyl-6-propyl-7H-imidazo[1,2-c]pyrrolo[3,2-e]pyrimidin-5(6H)-one] | 204.3
CCCN1C(=O)N2C[C@@H](Cc3ccccc3)N=C2c2cn(C3CCCC3)nc21 [Compound 7, (R)-2-Benzyl-8-cyclopentyl-2,3-dihydro-6-propyl-8H-imidazo[1,2-c]pyrazolo[4,3-e]pyrimidin-5(6H)-one hydrochloride] | 224.8
CCCN1C(=O)N2C[C@@H](Cc3ccccc3)N=C2c2nn(-c3ccccc3)cc21 [Compound 9, (R)-8-Benzyl-7,8-dihydro-2-phenyl-4-propyl-2H-imidazo[1,2-c]pyrazolo[3,4-e]pyrimidin-5(4H)-one] | 174.3

— patent US20060252780A1, “Fused pyrimidine derivatives” (Kyowa Hakko Kogyo Co., Ltd., priority 2003, published 2006)
